Measurements as given in patent US20170042899A1, “Use of Tetrahydrobiopterine Derivatives in the Treatment and Nutrition of Patients With Amino Acid Metabolic Disorders” (BioMarin Pharmaceutical Inc., priority 2002, published 2017).

How the values were obtained:
[1] = test system: persons with a deficiency in phenylalanine hydroxylase; assay: Combined phenylalanine and tetrahydrobiopterine exposure or stress test (phenylalanine concentration in blood); type: in vivo, human; settings: for patients with a response to tetrahydrobiopterine: blood phenylalanine sank by at least 30% 15 hours after exposure
Text: In order to research the therapeutic effectiveness of tetrahydrobiopterine, one carries out a combined phenylalanine tetrahydrobiopterine stress test for diagnostic and analyzes the effect in vivo by means of determining the [^13C] phenylalanine oxidation rate and 38 persons with a deficiency in phenylalanine hydroxylase prior to and subsequent to the administration of tetrahydrobiopterine derivatives. The response to tetrahydrobiopterine was associated with certain genotypes, and we localized mutations on the basis of the structural models of the phenylalanine hydroxylase monomer and the therefrom derived protein misfolding. We obtained the written consent of the families of 38 children, which suffered from various subset forms of hyperphenylalaninamie. The classification occurred depending upon the plasma phenylalanine concentration prior to treatment: less than 600 μmol/l, mild hyperphenylalaninamie, n=10, age 15 days through 10 years; 600-1200 μmol/l, mild, n=21, age 8 days through 17 years; greater than 1200 μmol, classical phenylketonurea, n=7, age 1 day through 9 years. A defect in this tetrahydrobiopterine biosynthesis or in the recycling of the tetrahydrobiopterine was ruled out by an analysis of the pterine value in urine and the dihydropteridine-reductase activity in erythrocytes. We examined seven patients during the newborn period and 31 as they were already older. Afflicted siblings (n=5) were likewise included in the study, since it is known that non-genetic factors influence the phenylalanine homeostasis. The uptake of phenylalanine was accomplished in that the patients were allowed to take a meal with 100 mg phenylalanine per kilogram body weight. One hour after the end of the meal the patients took 20 mg tetrahydrobiopterine per kilogram (Schircks Laboratories, Jona, Switzerland). The phenylalanine concentration in blood was determined by an electro spray ionization tandem mass spectroscopy—prior to the uptake of phenylalanine and prior to and subsequent to (at 4, 8 and 15 hours) provocation or exposure to tetrahydrobiopterine. During the test phase the newborns were fed with mothers milk, while the older children received a standardized protein supply (10 mg phenylalanine per kg) between six and eight hours after the exposure to tetrahydrobiopterine. The patients were classified as reacting to tetrahydrobiopterine if the phenylalanine concentration in the blood 15 hours after the exposure to tetrahydrobiopterine sank by at least 30% in comparison to the value prior to the intake of tetrahydrobiopterine.

[2] = test system: persons with a deficiency in phenylalanine hydroxylase; assay: In vivo analysis of L-[13C]phenylalanine oxidation (13CO2 breath test); set-up: species or system human
Text: In order to research the therapeutic effectiveness of tetrahydrobiopterine, one carries out a combined phenylalanine tetrahydrobiopterine stress test for diagnostic and analyzes the effect in vivo by means of determining the [^13C] phenylalanine oxidation rate and 38 persons with a deficiency in phenylalanine hydroxylase prior to and subsequent to the administration of tetrahydrobiopterine derivatives. The response to tetrahydrobiopterine was associated with certain genotypes, and we localized mutations on the basis of the structural models of the phenylalanine hydroxylase monomer and the therefrom derived protein misfolding.
The tests were carried out after a four hour fast in small children and an overnight fast in older children. Overall 6 mg L-[1^−13C] phenylalanine (Euriostop, Paris, France) per kilogram body weight were taken in orally. The tracer was dissolved in a 25% dextrose solution (2 mg per milliliter). Subsequently breath samples were taken over a period of 180 minutes and stored in air-free glass pipes until analysis by means of isotope mass spectroscopy (deltaS, Thermoquest, Bremen). The recapture of carbon-13 in the breath samples was calculated, as described by Treacy et al, wherein a total carbon dioxide of 300 mmol per hour×[…] of body surface was assumed. The ^13CO2-production was represented as a cumulative percentage rate of the calculated dose against time. The validity of the results in the newborn could have been influenced by the nutrition or the fact that the collection of the breath sample is more difficult with them than with older children. […] In cross section, less than one (older children) and less than two (newborns) of 27 sequential ^13CO2 measurements, which were obtained during the 180 minutes of an individual test, were not capable of interpretation.
Patients with various clinical stages of illness achieved basile cumulative ^13CO2 recapture rates, which respectively reflected their individual rest phenylalanine oxidation capacity (classic phenylketonurea, average value 1.4%; mild phenylketonurea, 3.1%; mild hyperphenylalaninamie, 5.6%; the healthy comparison group 9.0%). […] The rise was more clearly pronounced in patients with a mild phenylketonurea than in patients with a mild hyperphenylalaninamie (FIG. 2A). […] This is associated therewith that with longer therapies, also in the cases of hyperphenylalaninamie derivative, improvement by tetrahydrobiopterine could be achieved.

[3] = test system: children with mild phenylketonurea; assay: Long time treatment with tetrahydrobiopterine replacing the phenylalanine poor diet; type: in vivo, human; settings: five children
Description: The families with five children aged from 4 to 14 years with mild phenylketonurea consented to a therapeutic test, in which the phenylalanine poor diet was replaced by an oral administration of tetrahydrobiopterine in daily doses between 7.1 and 10.7 mg/kg body weight. The treatment lasted 207±51.3 days (average±SD; length 166-263).

[4] = Serum residence time; settings: in vivo
[5] = test system: patients with a lack of tetrahydrobiopterine; settings: more than 350 patients with a lack of tetrahydrobiopterine treated with the co-factor; cited from earlier work
[6] = a patient with classic phenylketonurea

C[C@H](O)[C@H](O)[C@H]1CNc2nc(N)[nH]c(=O)c2N1 [tetrahydrobiopterine, 5,6,7,8-tetrahydrobiopterine]
phenylalanine concentration in the blood after exposure ([1]; 23 of the 27 patients reacting to tetrahydrobiopterine): less than 200 μmol/l | patients in whom tetrahydrobiopterine significantly decreased the phenylalanine content in the blood and improved the phenylalanine oxidation ([1]; 27 of the 31 patients with mild hyperphenylalaninamie (n=10) or mild phenylketonurea (n=21)): 87% | phenylalanine concentration in blood, change [1, 6]: slight increase | patients satisfying the criteria of a strong response to tetrahydrobiopterine ([1]; classical phenylketonurea (n=7)): none | patients with a response to tetrahydrobiopterine ([1]; mild hyperphenylalaninamie): all ten | patients with a response to tetrahydrobiopterine ([1]; mild phenylketonurea): 17 of 21 | phenylalanine concentration in the blood after exposure ([1]; patients which did not react): exceeded 400 μmol/l | total 13CO2 recapture after treatment ([2]; 10 mg/kg body weight, 24 hours, patients which had responded to the stress test): rose significantly | persons reacting to tetrahydrobiopterine that achieved oxidation rates in a normal level ([2]; 27 persons reacting to tetrahydrobiopterine): 22 of the 27 | phenylalanine oxidation rate, change [2, 6]: improvement | patients which did not respond exhibiting a mild rise in phenylalanine oxidation ([2]; after short time therapy with tetrahydrobiopterine): 8 of 11 | phenylalanine concentration in blood during the pure cofactor treatment ([3]; diet replaced by tetrahydrobiopterine): 378 ± 173 µmol/L | daily phenylalanine tolerance with treatment (range) ([3]; oral 7.1-10.7 mg/kg body weight daily): 17.9-90 mg/kg body weight | daily phenylalanine tolerance with treatment (average±SD) ([3]; oral 7.1-10.7 mg/kg body weight daily, 207±51.3 days): 61.4±27.9 mg/kg body weight | serum residence time [4]: approximately 8 hours

C[C@H](O)[C@H](O)[C@H]1CNc2[nH]c(N)nc(=O)c2N1.Cl.Cl [BIOPTEN, sapropterinhydrochloride]
dose dependent undesired side effects [5]: interference with sleep, polyurea and thin stool
